# Experimental data reported in patent publication US20260200975A1, “PEPTIDE FOR CARTILAGE REGENERATION, AND USES THEREOF” (CAREGEN CO., LTD., priority 2022, published 2026).
# Peptide text beside a SMILES is read from it.
# Tested on: human-derived chondrocytes (C28/12, human chondrocyte cell line)
# Assay: Cytotoxicity by CCK-8 assay
# Assay type: cell-based
# Details: C28/12 cells, different concentrations, 3 days, absorbance 450 nm
# Method: The cytotoxicity of Peptide-1 or Peptide-2 upon addition to human-derived chondrocytes (C28/12, human chondrocyte cell line) was analyzed using a CCK-8 assay.
# Specifically, human-derived chondrocytes were seeded in a 96-well plate at a density of 3×10^3 cells/well and cultured in DMEM medium (cat. 11995-065, Gibco) for 24 hours. […] Meanwhile, as a positive control group, one to which TGFβ1 (20 ng/ml) was added was used.
compound,measurement,value
"N[C@@H](CCC(=O)O)C(=O)N[C@@H](Cc1ccc(O)cc1)C(=O)N[C@@H](Cc1ccccc1)C(=O)N[C@@H](Cc1c[nH]c2ccccc12)C(=O)O [Peptide-1, Glu(E)-Tyr(Y)-Phe(F)-Trp(W)] (H-EYFW-OH)",toxicity in human-derived chondrocytes (CCK-8 activity),did not exhibit toxicity
"CC(C)C[C@H](NC(=O)[C@@H](NC(=O)[C@@H](N)CCCNC(=N)N)[C@@H](C)O)C(=O)O [Peptide-2, Arg(R)-Thr(T)-Leu(L)] (H-Arg-Thr-Leu-OH)",toxicity in human-derived chondrocytes (CCK-8 activity),did not exhibit toxicity
